According to PubChem BioAssay AID248 (DTP/NCI, 2004):
“And” between values parts separate entries of the source, which are not always exact repeats. Equal entries are not always repeated. Toxic doses and inconclusive results are not listed. Rule as the data show it: active = T/C of 150% or more; inactive = T/C below 125%.

Test system: L1210 leukemia ip in BDF1 mice, survival T/C
Assay: NCI In Vivo Anticancer Drug Screen. Data for tumor model L1210 Leukemia (intraperitoneal) in B6D2F1 (BDF1) mice
Conditions: endpoint: mean survival time, higher = longer survival
How it was run: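 Value reflects the ratio of survival in compound-treated mice to survival in vehicle-treated controls, with both groups carrying the same transplanted tumor.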

[1] = dose: 100.0 mg/kg/injection, schedule: Q01DX009 (ip), vehicle: other
[2] = dose: 100.0 mg/kg/injection, schedule: Q04DX003 (ip), vehicle: saline
[3] = dose: 200.0 mg/kg/injection, schedule: Q04DX003 (ip), vehicle: saline
[4] = dose: 400.0 mg/kg/injection, schedule: Q04DX003 (ip), vehicle: saline
[5] = dose: 100.0 mg/kg/injection, schedule: Q01DX001 (ip), vehicle: saline
[6] = dose: 200.0 mg/kg/injection, schedule: Q01DX001 (ip), vehicle: saline
[7] = dose: 400.0 mg/kg/injection, schedule: Q01DX001 (ip), vehicle: saline
[8] = dose: 100.0 mg/kg/injection, schedule: Q01DX009 (ip), vehicle: saline with Tween-80
[9] = dose: 100.0 mg/kg/injection, schedule: Q04DX003 (ip), vehicle: saline with Tween-80
[10] = dose: 200.0 mg/kg/injection, schedule: Q01DX009 (ip), vehicle: saline with Tween-80
[11] = dose: 200.0 mg/kg/injection, schedule: Q04DX003 (ip), vehicle: saline with Tween-80
[12] = dose: 400.0 mg/kg/injection, schedule: Q04DX003 (ip), vehicle: saline with Tween-80
[13] = dose: 100.0 mg/kg/injection, schedule: Q01DX009 (ip), vehicle: Klucel (hydroxypropylcellulose) (HPC)
[14] = dose: 200.0 mg/kg/injection, schedule: Q01DX009 (ip), vehicle: Klucel (hydroxypropylcellulose) (HPC)
[15] = dose: 12.5 mg/kg/injection, schedule: Q01DX009 (ip), vehicle: saline
[16] = dose: 25.0 mg/kg/injection, schedule: Q01DX009 (ip), vehicle: saline
[17] = dose: 50.0 mg/kg/injection, schedule: Q01DX009 (ip), vehicle: saline
[18] = dose: 50.0 mg/kg/injection, schedule: Q04DX003 (ip), vehicle: saline

Measured: T/C

CC[C@@]1(O)C[C@H](OC2CC(N(C)C)C(OC3CC(O)C(O[C@@H]4O[C@@H](C)C(=O)C=C4N)C(C)O3)C(C)O2)c2c(cc3c(c2O)C(=O)c2c(O)ccc(O)c2C3=O)[C@H]1C(=O)OC (some centres undefined)
inactive: dose: 0.05 mg/kg/injection, schedule: Q01DX009 (ip), vehicle: suspension in saline 117 % of control | dose: 0.05 mg/kg/injection, schedule: Q09DX009 (ip), vehicle: saline 104 % of control | dose: 0.1 mg/kg/injection, schedule: Q05DX005 (ip), vehicle: saline 106 % of control | dose: 0.1 mg/kg/injection, schedule: Q09DX009 (ip), vehicle: saline 106 % of control | dose: 0.2 mg/kg/injection, schedule: Q01DX009 (ip), vehicle: suspension in saline 111 % of control | dose: 0.2 mg/kg/injection, schedule: Q03DX003 (ip), vehicle: saline 118 % of control | dose: 0.2 mg/kg/injection, schedule: Q05DX005 (ip), vehicle: saline 122 % of control | dose: 0.2 mg/kg/injection, schedule: Q09DX009 (ip), vehicle: saline 111 % of control | dose: 0.4 mg/kg/injection, schedule: Q01DX001 (ip), vehicle: saline 111 % of control | dose: 0.4 mg/kg/injection, schedule: Q01DX009 (ip), vehicle: suspension in saline 100 % of control | dose: 0.4 mg/kg/injection, schedule: Q03DX003 (ip), vehicle: saline 108 % of control | dose: 0.8 mg/kg/injection, schedule: Q01DX001 (ip), vehicle: saline 118 % of control | dose: 0.8 mg/kg/injection, schedule: Q01DX009 (ip), vehicle: suspension in saline 100 % of control | dose: 1.6 mg/kg/injection, schedule: Q01DX001 (ip), vehicle: saline 113 % of control | dose: 1.6 mg/kg/injection, schedule: Q05DX005 (ip), vehicle: saline 115 % of control | dose: 1.6 mg/kg/injection, schedule: Q09DX009 (ip), vehicle: saline 104 % of control | dose: 3.2 mg/kg/injection, schedule: Q03DX003 (ip), vehicle: saline 101 % of control | dose: 3.2 mg/kg/injection, schedule: Q05DX005 (ip), vehicle: saline 118 % of control | dose: 6.4 mg/kg/injection, schedule: Q03DX003 (ip), vehicle: saline 122 % of control

COC(=O)c1c(O)cc(OC)cc1OC
inactive: [1] 108 % of control | [2] 95 % of control | dose: 200.0 mg/kg/injection, schedule: Q01DX009 (ip), vehicle: other 108 % of control | [3] 97 % of control | dose: 400.0 mg/kg/injection, schedule: Q01DX009 (ip), vehicle: other 108 % of control | [4] 111 % of control

CC(O)(c1ccccc1)C1C(c2ccccc2)N1Cc1ccccc1 (centres undefined)
inactive: dose: 100.0 mg/kg/injection, schedule: Q04DX003 (ip), vehicle: saline sonified 96 % of control | dose: 200.0 mg/kg/injection, schedule: Q04DX003 (ip), vehicle: saline sonified 94 % of control | dose: 400.0 mg/kg/injection, schedule: Q04DX003 (ip), vehicle: saline sonified 91 % of control

C/C=C/C(=O)Nc1cccc(C(F)(F)F)c1
inactive: dose: 25.0 mg/kg/injection, schedule: Q01DX009 (ip), vehicle: other 92 % of control | dose: 50.0 mg/kg/injection, schedule: Q01DX009 (ip), vehicle: other 102 % of control | [1] 92 % of control and 95 % of control

O=C(NCCCl)NC1OC(CO)C(O)C(O)C1O (centres undefined)
inactive: [5] 107 % of control | [6] 101 % of control | [7] 96 % of control

NC(=S)N/N=C\c1cn(Cc2ccccc2)c2ccccc12
inactive: dose: 50.0 mg/kg/injection, schedule: Q01DX001 (ip), vehicle: saline 95 % of control | [5] 101 % of control | [6] 101 % of control | [7] 97 % of control

O=C(C=C(C(F)(F)F)C(F)(F)F)c1ccc(Br)cc1
inactive: dose: 25.0 mg/kg/injection, schedule: Q04DX003 (ip), vehicle: other 88 % of control | dose: 50.0 mg/kg/injection, schedule: Q04DX003 (ip), vehicle: other 94 % of control

O=C(c1ccc(O)c(C(=O)O)c1)c1ccc(O)c(C(=O)O)c1
inactive: dose: 100.0 mg/kg/injection, schedule: Q01DX001 (ip), vehicle: carboxymethylcellulose (CMC) 95 % of control | dose: 200.0 mg/kg/injection, schedule: Q01DX001 (ip), vehicle: carboxymethylcellulose (CMC) 95 % of control | dose: 400.0 mg/kg/injection, schedule: Q01DX001 (ip), vehicle: carboxymethylcellulose (CMC) 101 % of control

CC(=O)Nc1cccc2c1C(=O)OC2=O
inactive: [8] 105 % of control | [9] 102 % of control | [10] 89 % of control | [11] 99 % of control | dose: 400.0 mg/kg/injection, schedule: Q01DX009 (ip), vehicle: saline with Tween-80 93 % of control | [12] 94 % of control

OC1c2cc(Cl)cc(Cl)c2-c2c(Cl)cc(Cl)cc21
inactive: [2] 96 % of control | [3] 98 % of control | [4] 106 % of control

Cc1ccc(NC(=O)Oc2cccnc2)cc1NC(=O)Oc1cccnc1
inactive: [13] 93 % of control | [14] 94 % of control

COC(=O)C(NC(=O)OCc1ccccc1)C(=O)OC
inactive: [9] 100 % of control | [11] 100 % of control | [12] 98 % of control

OC(CF)CCl (centres undefined)
inactive: dose: 6.25 mg/kg/injection, schedule: Q01DX009 (ip), vehicle: saline 89 % of control | [15] 96 % of control | [16] 103 % of control

NCc1cc(=O)[nH]c(=O)[nH]1
inactive: [2] 104 % of control | [4] 89 % of control

COc1ccc(/C=C2\NC(=O)NC2=O)cc1Br
inactive: [13] 93 % of control | [14] 96 % of control | dose: 400.0 mg/kg/injection, schedule: Q01DX009 (ip), vehicle: Klucel (hydroxypropylcellulose) (HPC) 91 % of control

COC(=O)c1nc(Cl)nc(N)c1Cl
inactive: dose: 100.0 mg/kg/injection, schedule: Q04DX003 (ip), vehicle: Klucel (hydroxypropylcellulose) (HPC) 94 % of control | dose: 200.0 mg/kg/injection, schedule: Q04DX003 (ip), vehicle: Klucel (hydroxypropylcellulose) (HPC) 94 % of control | dose: 400.0 mg/kg/injection, schedule: Q04DX003 (ip), vehicle: Klucel (hydroxypropylcellulose) (HPC) 97 % of control

CCNC(=O)CCP(=O)(CCC(=O)NCC)CCC(=O)NCC
inactive: [17] 94 % of control | [18] 101 % of control | dose: 100.0 mg/kg/injection, schedule: Q01DX009 (ip), vehicle: saline 90 % of control | [2] 101 % of control | dose: 200.0 mg/kg/injection, schedule: Q01DX009 (ip), vehicle: saline 90 % of control | [3] 101 % of control | [4] 101 % of control

COCC=C(C)C
inactive: dose: 50.0 mg/kg/injection, schedule: Q01DX009 (ip), vehicle: saline with Tween-80 106 % of control | [8] 92 % of control | [10] 95 % of control

CC(C)OCCCN=C(N)N
inactive: [15] 100 % of control | [16] 98 % of control | dose: 25.0 mg/kg/injection, schedule: Q04DX003 (ip), vehicle: saline 101 % of control | [17] 102 % of control and 104 % of control | [18] 96 % of control | [2] 96 % of control
